Source: patent publication US20260327211A1, “MODULATORS OF A POTASSIUM CHANNEL AND OF TRPV1 CHANNEL AND USES THEREOF” (Bsense Bio Therapeutics Ltd., priority 2023, published 2026)

How the values were obtained:
[1] = test system: rats; experiment: Core body temperature; type: in vivo, rat; details: 10 mg/kg
Experimental: Core Body Temperature: Following two days of habituation to the measurement method, the body temperature was measured on study day for baseline values and then again post-dosing in the time points indicated in the figure. Body temperature was measured using a probe gently inserted into the animal anus using a corn oil lubricant (C8267, Sigma-Aldrich, IL).

[2] = test system: rats; experiment: Hot plate (53° C.); type: in vivo, rat; details: 10 mg/kg PO, 2 and 4 hours post-dose
Experimental: Hot Plate: Animals were placed on hot plate analgesia meter (IITC Life Science Inc., CA, USA) set to 53±1° C., and the time until the first escape response was observed was recorded. A response was considered when the animals lifted or licked their leg or performed kicking behavior.

[3] = test system: humans; details: Rowbotham 2011; cited from earlier work
[4] = test system: HepG2 cells; details: positive control; read-out: Toxicity IC50; cited from earlier work
[5] = test system: KCNQ2-5-type potassium channels; details: cited from earlier work
[6] = test system: sodium and calcium channel; details: cited from earlier work
[7] = biological target: T1, hKv7.3/5 (Homo sapiens, UniProt O43525+Q9NR82); details: positive control; read-out: Known IC50, Kv7.3/5; cited from earlier work
T1 construct: expressed in transfected cells; host or cells: CHO
T1 sequence (O43525 whole entry): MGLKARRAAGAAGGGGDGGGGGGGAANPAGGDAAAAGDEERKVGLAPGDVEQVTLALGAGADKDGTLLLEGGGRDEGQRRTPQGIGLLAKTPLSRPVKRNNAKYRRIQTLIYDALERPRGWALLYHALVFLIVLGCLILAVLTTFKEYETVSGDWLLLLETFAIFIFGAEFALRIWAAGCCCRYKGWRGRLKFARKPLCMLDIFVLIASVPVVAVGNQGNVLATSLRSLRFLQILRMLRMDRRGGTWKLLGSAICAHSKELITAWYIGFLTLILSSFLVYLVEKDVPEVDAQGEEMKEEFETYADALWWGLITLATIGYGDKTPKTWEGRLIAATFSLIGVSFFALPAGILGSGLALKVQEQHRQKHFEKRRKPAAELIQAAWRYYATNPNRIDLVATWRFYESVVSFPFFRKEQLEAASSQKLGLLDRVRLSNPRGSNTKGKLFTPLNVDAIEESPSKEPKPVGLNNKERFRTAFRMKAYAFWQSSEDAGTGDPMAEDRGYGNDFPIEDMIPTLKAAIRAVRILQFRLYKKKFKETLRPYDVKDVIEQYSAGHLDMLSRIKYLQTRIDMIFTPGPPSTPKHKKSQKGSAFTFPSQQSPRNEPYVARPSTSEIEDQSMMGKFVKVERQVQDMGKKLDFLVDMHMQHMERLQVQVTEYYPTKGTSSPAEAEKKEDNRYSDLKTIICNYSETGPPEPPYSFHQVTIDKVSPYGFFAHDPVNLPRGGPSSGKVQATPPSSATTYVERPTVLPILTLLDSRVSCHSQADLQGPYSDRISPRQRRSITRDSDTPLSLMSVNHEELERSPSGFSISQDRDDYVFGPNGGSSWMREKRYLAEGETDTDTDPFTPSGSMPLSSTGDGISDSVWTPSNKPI
T1 sequence (Q9NR82 whole entry): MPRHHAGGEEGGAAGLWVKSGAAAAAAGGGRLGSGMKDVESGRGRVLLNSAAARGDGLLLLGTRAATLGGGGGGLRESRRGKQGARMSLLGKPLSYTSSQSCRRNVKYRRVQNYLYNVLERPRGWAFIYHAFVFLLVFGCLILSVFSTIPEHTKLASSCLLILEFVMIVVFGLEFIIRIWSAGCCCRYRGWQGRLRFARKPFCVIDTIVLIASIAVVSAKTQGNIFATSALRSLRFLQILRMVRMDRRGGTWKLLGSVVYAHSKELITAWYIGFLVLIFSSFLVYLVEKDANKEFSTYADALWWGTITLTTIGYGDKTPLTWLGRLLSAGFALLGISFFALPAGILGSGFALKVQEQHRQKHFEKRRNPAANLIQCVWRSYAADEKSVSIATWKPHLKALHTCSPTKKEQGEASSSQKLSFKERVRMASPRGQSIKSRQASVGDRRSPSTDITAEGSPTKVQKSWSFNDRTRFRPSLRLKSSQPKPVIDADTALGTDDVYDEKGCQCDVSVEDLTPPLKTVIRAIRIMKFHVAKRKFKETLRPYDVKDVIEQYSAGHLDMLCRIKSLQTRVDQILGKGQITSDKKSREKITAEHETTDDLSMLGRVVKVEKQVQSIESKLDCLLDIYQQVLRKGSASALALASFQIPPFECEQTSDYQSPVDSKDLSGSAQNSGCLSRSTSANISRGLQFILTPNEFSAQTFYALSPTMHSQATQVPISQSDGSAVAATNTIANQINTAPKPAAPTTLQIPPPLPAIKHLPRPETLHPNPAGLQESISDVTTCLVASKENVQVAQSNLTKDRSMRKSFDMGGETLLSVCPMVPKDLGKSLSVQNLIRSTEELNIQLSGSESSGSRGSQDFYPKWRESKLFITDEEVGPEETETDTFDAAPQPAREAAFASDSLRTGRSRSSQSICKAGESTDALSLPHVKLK

[8] = biological target: T2, hKv7.2/3 (Homo sapiens, UniProt O43525+O43526); experiment: Kv7.2/7.3 HCS, FLIPR potassium (thallium) assay, CHO/hKv7.2/3; type: cell-based; details: read-out: Kv7.2/3 maximal opening vs. control
T2 construct: host or cells: CHO
T2 sequence (O43525 whole entry): as the sequence (O43525 whole entry) above
T2 sequence (O43526 whole entry): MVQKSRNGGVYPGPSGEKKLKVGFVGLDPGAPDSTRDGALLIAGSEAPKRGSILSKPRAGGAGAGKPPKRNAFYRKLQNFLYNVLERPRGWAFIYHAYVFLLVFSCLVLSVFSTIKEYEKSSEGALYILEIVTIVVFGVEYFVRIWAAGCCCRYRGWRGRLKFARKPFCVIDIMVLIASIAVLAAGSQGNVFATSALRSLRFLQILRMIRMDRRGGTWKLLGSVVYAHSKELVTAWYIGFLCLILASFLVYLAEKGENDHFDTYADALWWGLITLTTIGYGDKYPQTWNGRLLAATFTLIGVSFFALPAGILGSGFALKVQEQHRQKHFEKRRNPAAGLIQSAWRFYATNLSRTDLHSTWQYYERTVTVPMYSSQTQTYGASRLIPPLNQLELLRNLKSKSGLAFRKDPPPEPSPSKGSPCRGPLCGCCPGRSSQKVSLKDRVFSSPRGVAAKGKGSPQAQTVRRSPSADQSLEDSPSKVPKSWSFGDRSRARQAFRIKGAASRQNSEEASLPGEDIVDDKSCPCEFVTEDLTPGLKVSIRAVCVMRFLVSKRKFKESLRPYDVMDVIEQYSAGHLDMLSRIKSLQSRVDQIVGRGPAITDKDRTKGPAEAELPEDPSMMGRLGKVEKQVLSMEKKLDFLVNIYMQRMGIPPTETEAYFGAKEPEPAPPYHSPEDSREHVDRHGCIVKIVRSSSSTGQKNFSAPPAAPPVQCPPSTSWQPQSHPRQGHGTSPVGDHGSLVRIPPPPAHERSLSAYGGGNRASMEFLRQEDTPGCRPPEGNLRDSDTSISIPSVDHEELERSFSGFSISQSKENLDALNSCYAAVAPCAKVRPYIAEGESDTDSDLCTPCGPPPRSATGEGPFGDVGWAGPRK
Summary of the method: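 CHO cells stably expressing human Kv7.2/3, loaded with Tl+ indicator dye 1.5 h at room temperature in HBSS/HEPES with compound (0.2% DMSO). Channels activated by injection of 1 mM Tl2SO4 plus 5 mM K2SO4; fluorescence increase reflects Tl+ influx. EC50 from sigmoidal fit constrained to minimum 1, maximum ~3.6.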

[9] = biological target: T3, hKv7.4 (Homo sapiens, UniProt P56696); details: positive control; read-out: Known IC50, Kv7.4; cited from earlier work
T3 construct: expressed in transfected cells; host or cells: CHO
T3 sequence (P56696 whole entry): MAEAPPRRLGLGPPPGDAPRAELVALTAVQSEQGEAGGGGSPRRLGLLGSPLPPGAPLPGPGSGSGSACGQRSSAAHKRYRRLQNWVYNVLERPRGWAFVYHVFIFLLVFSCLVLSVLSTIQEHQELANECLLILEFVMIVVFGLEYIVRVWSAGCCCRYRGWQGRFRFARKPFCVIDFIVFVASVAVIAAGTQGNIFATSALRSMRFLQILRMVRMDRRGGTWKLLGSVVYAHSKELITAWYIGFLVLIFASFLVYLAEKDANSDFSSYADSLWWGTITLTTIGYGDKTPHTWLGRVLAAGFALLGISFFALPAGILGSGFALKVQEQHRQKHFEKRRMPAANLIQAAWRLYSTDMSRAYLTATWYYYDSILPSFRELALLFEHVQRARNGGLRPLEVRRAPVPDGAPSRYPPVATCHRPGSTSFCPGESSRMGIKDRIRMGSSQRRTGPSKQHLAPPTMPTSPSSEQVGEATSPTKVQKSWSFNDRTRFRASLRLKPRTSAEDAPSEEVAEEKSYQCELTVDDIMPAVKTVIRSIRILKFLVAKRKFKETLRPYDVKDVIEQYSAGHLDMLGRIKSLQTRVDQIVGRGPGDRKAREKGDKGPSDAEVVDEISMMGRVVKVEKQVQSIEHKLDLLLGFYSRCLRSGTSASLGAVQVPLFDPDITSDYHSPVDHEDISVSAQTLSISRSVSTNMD

With `CC(C)(C)c1ccc2c(c1)CC[C@H]2NC(=O)Nc1cccc2[nH]ncc12` [ABT102, reference compound] the “Increase of core body temperature vs vehicle” value ([1]; 6 hours post-dose) was 1.3 °C, the “Increase of core body temperature vs vehicle” value ([1]; 10 hours post-dose) was 0.8 °C and the “Hot plate escape latency” value [2] was “statistically significant increase in hot plate escape latency”. For the same compound, the “Heat pain threshold, clinical” value [3] was “increase heat pain threshold”.

In the case of `NS(=O)(=O)OC[C@H]1C[C@@H](Nc2ccnc3cc(-c4cccc(SC(F)(F)F)c4)nn23)[C@H](O)[C@@H]1O` [TAK243], the IC50 [4] is listed as roughly 200 nM.

For `CCOC(=O)Nc1ccc(NCc2ccc(F)cc2)cc1N` [Retigabine, N-(2-amino-4-(4-fluorobenzylamino)-phenyl)carbamic acid ethyl ester], the “Channel selectivity” value [5] is listed as “highly selective for KCNQ2-5-type potassium channels”, the “Other effects” value [6] is listed as “sodium and calcium channel blocking activity” and the IC50 [7] is listed as 1.5 to 5 µM. For the same compound, the Emax [8] was 220% and the IC50 [9] was 1.5 to 5 µM.
